Legend:
MCP-1 [1] = experiment: MCP-1 protein secretion into conditioned medium of differentiated 3T3-L1 adipocytes (ELISA); format: cell-based, mouse; conditions: 3T3-L1 conditioned medium, eight days after start of differentiation induction, relative to non-treated control = 100, mean ± standard error
Protocol: (§1) First, two types of culture media indicated below, i.e. a differentiation induction culture medium and a differentiation enhancing culture medium, were prepared.
(§2) (Composition: 0.25 μM DEX, 0.5 mM MIX, 10 μg/mL insulin/10% FBS-containing DMEM)
(§3) First, 55 mL of FBS (fetal bovine serum (manufactured by GIBCO)) was added to 500 mL of DMEM (manufactured by SIGMA), and thereby 10% FBS-containing DMEM was prepared. Thereafter, 138.75 μL of 1 mM DEX (dexamethasone)-containing DMSO (manufactured by Nacalai Tesque, Inc.) and 555 μL of 10 mg/mL insulin-containing PBS (manufactured by SIGMA) were added thereto. The insulin-containing PBS was prepared as follows. That is, 1N HCl was added to PBS beforehand, so that PBS acidified to a degree that allowed insulin to dissolve therein, and thereafter insulin was dissolved therein. MIX (3-Isobutyl-1-methylxanthine) (manufactured by Nacalai Tesque, Inc.) was added to a required amount of the culture medium immediately before use so as to be 0.5 mM. Thus a differentiation induction culture medium was prepared. Since MIX was very difficult to dissolve, it first was dissolved in a small amount of 99.5% ethanol. which was then added to 10% FBS-containing DMEM. In this case, the final concentration of 99.5% ethanol in the differentiation induction culture medium was adjusted so as not to exceed 1%.
(§4) (Composition: 5 ug/mL insulin/10% FBS-containing DMEM/auraptene)
First, 277.5 μL of the aforementioned 10 mg/mL insulin-containing PBS was added to 555 ml, of 10% FBS-containing DMEM. Furthermore, auraptene (AUR) with various concentrations was added to this mixture and thereby differentiation enhancing culture media were prepared. In this case, a cultured cell obtained by using auraptene-free differentiation enhancing culture medium containing DMSO added instead of auraptene was employed as a non-treated control (control).
Subsequently, frozen cultured preadipocyte 3T3-L1 was thawed and was plated on the culture medium placed in a 100-mm dish. This was cultured until 3T3-L1 reached about 80% confluent. One dish of 3T3-L1 that had reached about 80% confluent was subcultured on a 6-well plate. Subsequently, after 3T3-L1 subcultured on the 6-well plate further was cultured until it reached 100% confluent, the culture medium was replaced by a differentiation induction culture medium and thereby differentiation was induced. Subsequently, 48 hours after replacement by a differentiation induction culture medium, the culture medium was replaced by a differentiation enhancing culture medium. Thereafter, replacement of the differentiation enhancing culture medium was carried out every three days. Using Sepasol RNA I Super (trade name, manufactured by Nacalai Tesque, Inc.), mRNA was extracted from the cultured cells eight days after the start of differentiation induction. Subsequently, using a Light/Cycler®, the levels of mRNA expression of MCP-1 and 36B4, […], were measured. The measurement of the levels of mRNA expression is described below in detail.
Furthermore, the culture medium obtained eight days after the start of differentiation induction was collected in an amount of 1 mL from each well. Using an ELISA kit (manufactured by BD Bioscience, trade name: BD OptEIA Set Mouse MCP-1), the amount of MCP-1 (protein abundance) in the conditioned medium was measured according to the manual of the kit.
The relative ratios calculated, with the measured value of the non-treated control (control) with respect to the measured value of the secretion amount of MCP-1 by ELISA being taken as 100, are indicated in Table 2 below and in the graph shown in FIG. 2. The auraptene concentrations indicated in Table 2 below and FIG. 2 are final concentrations in the differentiation enhancing culture media. In FIG. 2, AUR denotes auraptene, and Ctrl indicates the non-treated control (control). […]

MCP-1 [2] = experiment: Suppression of MCP-1 mRNA expression in differentiated 3T3-L1 adipocytes (Light Cycler quantitative determination, ratio to 36B4); format: cell-based, mouse; conditions: 3T3-L1, eight days after start of differentiation induction, MCP-1/36B4 ratio relative to non-treated control = 100%, mean ± standard error
Protocol: as §1, §2, §3, §4
First, 277.5 μL of the aforementioned 10 mg/mL insulin-containing PBS was added to 555 ml, of 10% FBS-containing DMEM. Furthermore, auraptene (AUR) with various concentrations was added to this mixture and thereby differentiation enhancing culture media were prepared. […]
Subsequently, frozen cultured preadipocyte 3T3-L1 was thawed and was plated on the culture medium placed in a 100-mm dish. […] Subsequently, using a Light/Cycler®, the levels of mRNA expression of MCP-1 and 36B4, […], were measured. […]

What does the source list for `CC(C)=CCC/C(C)=C/COc1ccc2ccc(=O)oc2c1` [Example 1, auraptene]?
Protein secretion amount of MCP-1 (MCP-1 [1]; auraptene 1 μM): 94.6 ± 4.9%; Protein secretion amount of MCP-1 (MCP-1 [1]; auraptene 5 μM): 98.6 ± 2.5%; Protein secretion amount of MCP-1 (MCP-1 [1]; auraptene 10 μM): 92.1 ± 4.6%; Protein secretion amount of MCP-1 (MCP-1 [1]; auraptene 20 μM): 72.3 ± 2.2%; Protein secretion amount of MCP-1 (MCP-1 [1]; auraptene 30 μM): 63.9 ± 2.5%; Protein secretion amount of MCP-1 (MCP-1 [1]; auraptene 50 μM): 48.5 ± 2.1%; mRNA concentration of MCP-1 (MCP-1 [2]; auraptene 5 μM in differentiation enhancing medium): 99.8 ± 8.0%; mRNA concentration of MCP-1 (MCP-1 [2]; auraptene 20 μM in differentiation enhancing medium): 62.3 ± 5.8%; mRNA concentration of MCP-1 (MCP-1 [2]; auraptene 50 μM in differentiation enhancing medium): 28.3 ± 2.9%

From patent publication US20090118361A1, “SUPPRESSOR OF EXPRESSION OF MCP-1, AND AMELIORATING AGENT FOR INFLAMMATORY DISEASE, PHARMACEUTICAL, SUPPLEMENT, FOOD, BEVERAGE OR FOOD ADDITIVE USING THE SUPPRESSOR” (ARKRAY, INC., priority 2006, published 2009)
